In PubChem BioAssay AID248 (DTP/NCI, 2004):
“And” between values parts separate entries of the source, which are not always exact repeats. Equal values may be shown once. Inconclusive results and toxic doses are left out.

System: L1210 leukemia ip in BDF1 mice, survival T/C
Assay: NCI In Vivo Anticancer Drug Screen. Data for tumor model L1210 Leukemia (intraperitoneal) in B6D2F1 (BDF1) mice
Settings: endpoint: mean survival time, higher = longer survival
How it was run: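 Transplanted-tumor mice were given test agent; controls received vehicle only. Survival readings from the two groups were divided (treated over control).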

[1] = dose: 100.0 mg/kg/injection, schedule: Q01DX009 (ip), vehicle: saline with Tween-80
[2] = dose: 200.0 mg/kg/injection, schedule: Q01DX009 (ip), vehicle: saline with Tween-80
[3] = dose: 400.0 mg/kg/injection, schedule: Q01DX009 (ip), vehicle: saline with Tween-80
[4] = dose: 100.0 mg/kg/injection, schedule: Q01DX001 (ip), vehicle: saline
[5] = dose: 200.0 mg/kg/injection, schedule: Q01DX001 (ip), vehicle: saline
[6] = dose: 400.0 mg/kg/injection, schedule: Q01DX001 (ip), vehicle: saline
[7] = dose: 100.0 mg/kg/injection, schedule: Q01DX001 (ip), vehicle: carboxymethylcellulose (CMC)
[8] = dose: 75.0 mg/kg/injection, schedule: Q04DX003 (ip), vehicle: saline
[9] = dose: 150.0 mg/kg/injection, schedule: Q04DX003 (ip), vehicle: saline
[10] = dose: 300.0 mg/kg/injection, schedule: Q04DX003 (ip), vehicle: saline
[11] = dose: 100.0 mg/kg/injection, schedule: Q01DX001 (ip), vehicle: Klucel (hydroxypropylcellulose) (HPC)
[12] = dose: 200.0 mg/kg/injection, schedule: Q01DX001 (ip), vehicle: Klucel (hydroxypropylcellulose) (HPC)
[13] = dose: 400.0 mg/kg/injection, schedule: Q01DX001 (ip), vehicle: Klucel (hydroxypropylcellulose) (HPC)
[14] = dose: 100.0 mg/kg/injection, schedule: Q04DX003 (ip), vehicle: Klucel (hydroxypropylcellulose) (HPC)
[15] = dose: 200.0 mg/kg/injection, schedule: Q04DX003 (ip), vehicle: Klucel (hydroxypropylcellulose) (HPC)
[16] = dose: 400.0 mg/kg/injection, schedule: Q04DX003 (ip), vehicle: Klucel (hydroxypropylcellulose) (HPC)
[17] = dose: 100.0 mg/kg/injection, schedule: Q01DX009 (ip), vehicle: Klucel (hydroxypropylcellulose) (HPC)
[18] = dose: 200.0 mg/kg/injection, schedule: Q01DX009 (ip), vehicle: Klucel (hydroxypropylcellulose) (HPC)
[19] = dose: 400.0 mg/kg/injection, schedule: Q01DX009 (ip), vehicle: Klucel (hydroxypropylcellulose) (HPC)

Nc1ccc(CCCC(=O)NCc2cccnc2)cc1
T/C [1]: 105 % of control
T/C [2]: 94 % of control
T/C [3]: 96 % of control

CC1(c2ccsc2)NC(=O)NC1=O (stereo unspecified)
T/C [4]: 93 % of control
T/C [5]: 93 % of control
T/C [6]: 90 % of control

CSc1ncnc2c1ncn2CC(=O)[C@@]1(O)CC[C@H]2[C@@H]3CCC4=CC(=O)CC[C@]4(C)[C@H]3[C@@H](O)C[C@@]21C
T/C (dose: 100.0 mg/kg/injection, schedule: Q01DX001 (sc), vehicle: steriod suspending solution): 99 % of control
T/C (dose: 200.0 mg/kg/injection, schedule: Q01DX001 (sc), vehicle: steriod suspending solution): 100 % of control
T/C (dose: 400.0 mg/kg/injection, schedule: Q01DX001 (sc), vehicle: steriod suspending solution): 100 % of control

CC1=C/C(=N/N=c2\ccn(O)cc2C)C=CC1=N
T/C (dose: 50.0 mg/kg/injection, schedule: Q04DX002 (sc), vehicle: saline with Tween-80): 100 % of control
T/C (dose: 100.0 mg/kg/injection, schedule: Q04DX002 (sc), vehicle: saline with Tween-80): 100 % of control
T/C (dose: 200.0 mg/kg/injection, schedule: Q04DX002 (sc), vehicle: saline with Tween-80): 100 % of control
T/C (dose: 400.0 mg/kg/injection, schedule: Q04DX002 (sc), vehicle: saline with Tween-80): 93 % of control

CCN(CC)CCOC(=O)c1ccco1
T/C (dose: 50.0 mg/kg/injection, schedule: Q01DX009 (ip), vehicle: saline): 96 % of control
T/C (dose: 100.0 mg/kg/injection, schedule: Q01DX009 (ip), vehicle: saline): 103 % of control
T/C (dose: 200.0 mg/kg/injection, schedule: Q01DX009 (ip), vehicle: saline): 100 % of control

CC/C(=C(\CC)c1ccc(OCCN(CC)CC)cc1)c1ccc(OCCN(CC)CC)cc1
T/C (dose: 5.0 mg/kg/injection, schedule: Q01DX001 (ip), vehicle: carboxymethylcellulose (CMC)): 94 % of control
T/C (dose: 10.0 mg/kg/injection, schedule: Q01DX001 (ip), vehicle: carboxymethylcellulose (CMC)): 96 % of control
T/C (dose: 40.0 mg/kg/injection, schedule: Q01DX001 (ip), vehicle: carboxymethylcellulose (CMC)): 94 % of control
T/C [7]: 106 % of control

Cc1ccnc(NS(=O)(=O)c2ccc(N=Nc3c(N)nc(N)[nH]c3=O)cc2)n1
T/C [7]: 103 % of control
T/C (dose: 200.0 mg/kg/injection, schedule: Q01DX001 (ip), vehicle: carboxymethylcellulose (CMC)): 97 % of control
T/C (dose: 400.0 mg/kg/injection, schedule: Q01DX001 (ip), vehicle: carboxymethylcellulose (CMC)): 103 % of control

CCCCC=C(C1CCCCC1)C1CCCCC1
T/C (dose: 75.0 mg/kg/injection, schedule: Q01DX001 (ip), vehicle: saline): 104 % of control
T/C [8]: 92 % of control
T/C (dose: 150.0 mg/kg/injection, schedule: Q01DX001 (ip), vehicle: saline): 93 % of control
T/C [9]: 101 % of control
T/C (dose: 300.0 mg/kg/injection, schedule: Q01DX001 (ip), vehicle: saline): 91 % of control
T/C [10]: 100 % of control

CC(C)c1ccc(C(=O)C(O)c2ccc(C(C)C)cc2)cc1 (stereo unspecified)
T/C [1]: 93 % of control
T/C [2]: 97 % of control
T/C [3]: 97 % of control

CSc1nc(NN)cc(-c2ccccc2)n1
T/C (dose: 100.0 mg/kg/injection, schedule: Q01DX Z (ip), vehicle: methylcellulose (MC)): 98 % of control
T/C (dose: 200.0 mg/kg/injection, schedule: Q01DX Z (ip), vehicle: methylcellulose (MC)): 90 % of control

O=Nc1ccc(O)cc1Cl
T/C [11]: 103 % of control and 88 % of control
T/C [12]: 117 % of control
T/C [13]: 95 % of control and 103 % of control

Nc1nc(=S)c2ncn(CN3CCCCC3)c2[nH]1
T/C (dose: 1.3 mg/kg/injection, schedule: Q01DX Z (ip), vehicle: carboxymethylcellulose (CMC)): 112 % of control
T/C (dose: 2.0 mg/kg/injection, schedule: Q01DX Z (ip), vehicle: carboxymethylcellulose (CMC)): 123 % of control
T/C (dose: 3.0 mg/kg/injection, schedule: Q01DX Z (ip), vehicle: carboxymethylcellulose (CMC)): 154 % of control
T/C (dose: 3.0 mg/kg/injection, schedule: Q01DX Z (ip), vehicle: saline): 155 % of control
T/C (dose: 4.5 mg/kg/injection, schedule: Q01DX Z (ip), vehicle: carboxymethylcellulose (CMC)): 151 % of control
T/C (dose: 4.5 mg/kg/injection, schedule: Q01DX Z (ip), vehicle: saline): 166 % of control
T/C (dose: 7.0 mg/kg/injection, schedule: Q01DX Z (ip), vehicle: saline): 156 % of control
T/C (dose: 10.0 mg/kg/injection, schedule: Q01DX Z (ip), vehicle: saline): 156 % of control

CC(=O)Nc1nc2c(ncn2C2OCC(OC(C)=O)C(OC(C)=O)C2OC(C)=O)c(=O)[nH]1 (stereo unspecified) (tested in a mixture with another compound)
T/C [4]: 102 % of control
T/C [5]: 102 % of control
T/C [6]: 101 % of control

N=C(N)c1cccc(CCCCc2ccc(N)cc2)c1
T/C [14]: 94 % of control
T/C [15]: 99 % of control

CC(C)(C)c1ccc(S(=O)(=O)c2ccc(C(C)(C)C)cc2)cc1
T/C [14]: 94 % of control
T/C [15]: 105 % of control
T/C [16]: 91 % of control

CNC(=S)N(N)c1ccccc1
T/C [17]: 104 % of control
T/C [14]: 93 % of control
T/C [18]: 101 % of control
T/C [15]: 103 % of control
T/C [16]: 101 % of control

CC1(CBr)Oc2ccccc2O1
T/C [17]: 115 % of control
T/C [18]: 97 % of control
T/C [19]: 101 % of control

O=C(O)C1CC(c2ccccc2)=NN1c1ccccc1 (stereo unspecified)
T/C [11]: 104 % of control
T/C [12]: 90 % of control
T/C [13]: 93 % of control

O=C(c1ccc(O)cc1O)c1cccc2ccccc12
T/C [17]: 95 % of control
T/C [14]: 93 % of control
T/C [18]: 97 % of control
T/C [15]: 95 % of control
T/C [19]: 99 % of control
T/C [16]: 93 % of control

CN1C2CCC(O)C1CC2 (stereo unspecified)
T/C [4]: 102 % of control
T/C [5]: 102 % of control

O=c1oc(=O)c2ccccc2c2ccccc12
T/C (dose: 100.0 mg/kg/injection, schedule: Q01DX001 (ip), vehicle: other): 93 % of control
T/C (dose: 200.0 mg/kg/injection, schedule: Q01DX001 (ip), vehicle: other): 96 % of control
T/C (dose: 400.0 mg/kg/injection, schedule: Q01DX001 (ip), vehicle: other): 107 % of control

CCN(CC)S(=O)(=O)c1cccc([N+](=O)[O-])c1
T/C [1]: 99 % of control

Cc1ccc(Cl)cc1NC(=O)c1ccc(Cl)cc1
T/C [17]: 99 % of control
T/C (dose: 100.0 mg/kg/injection, schedule: Q04DX003 (ip), vehicle: saline): 114 % of control
T/C [18]: 89 % of control
T/C (dose: 200.0 mg/kg/injection, schedule: Q04DX003 (ip), vehicle: saline): 97 % of control
T/C [19]: 93 % of control
T/C (dose: 400.0 mg/kg/injection, schedule: Q04DX003 (ip), vehicle: saline): 119 % of control

COc1ccc(Cl)cc1Cl
T/C (dose: 75.0 mg/kg/injection, schedule: Q01DX009 (ip), vehicle: saline): 90 % of control
T/C [8]: 100 % of control
T/C (dose: 150.0 mg/kg/injection, schedule: Q01DX009 (ip), vehicle: saline): 86 % of control
T/C [9]: 95 % of control
T/C (dose: 300.0 mg/kg/injection, schedule: Q01DX009 (ip), vehicle: saline): 92 % of control
T/C [10]: 90 % of control

CCN(CC)Cc1ccccc1COC(=O)/C=C/c1ccccc1
T/C (dose: 100.0 mg/kg/injection, schedule: Q04DX002 (ip), vehicle: saline): 108 % of control
T/C (dose: 200.0 mg/kg/injection, schedule: Q04DX002 (ip), vehicle: saline): 86 % of control
T/C (dose: 400.0 mg/kg/injection, schedule: Q04DX002 (ip), vehicle: saline): 108 % of control

CCOC(=O)C1CN(C(C)(C)C)C(=O)C1=O (stereo unspecified)
T/C (dose: 50.0 mg/kg/injection, schedule: Q01DX001 (ip), vehicle: saline): 106 % of control
T/C [4]: 102 % of control
T/C [5]: 108 % of control
T/C [6]: 100 % of control

O=C(O)CNC(=O)c1ccc([N+](=O)[O-])cc1
T/C [1]: 92 % of control
T/C (dose: 100.0 mg/kg/injection, schedule: Q04DX003 (ip), vehicle: saline with Tween-80): 103 % of control
T/C [2]: 92 % of control
T/C (dose: 200.0 mg/kg/injection, schedule: Q04DX003 (ip), vehicle: saline with Tween-80): 98 % of control
T/C [3]: 92 % of control
T/C (dose: 400.0 mg/kg/injection, schedule: Q04DX003 (ip), vehicle: saline with Tween-80): 98 % of control
